Measurements published in ChEMBL document CHEMBL1201862, “PubChem BioAssay data set” (2004).
Activity calls are given as the source filed them.

Key:
[1] = target: Cyclin-dependent kinase 5 (Homo sapiens, UniProt Q00535); format: functional;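 further: CDK5 measured as one member of a kinase profiling panel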
[2] = target: Dual specificity protein kinase CLK4 (Homo sapiens, UniProt Q9HAZ1); format: functional
[3] = target: Platelet-derived growth factor receptor alpha (Homo sapiens, UniProt P16234); assay: Navigating the Kinome. Panel member name: PDGFRA; format: functional
[4] = target: Mitogen-activated protein kinase 8 (Homo sapiens, UniProt P45983); format: functional;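 further: value comes from one member of a kinome-wide kinase profiling panel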
[5] = Vero cell cytotoxicity, cytotoxicity control for M. tuberculosis inhibitor project, purified and synthesized samples, set 3 (AID 504684); format: functional
[6] = Luminescence Cell-Based Dose Retest to Confirm Inhibitors of Cancer Stem Cells. [Related pubchem assays (depositor defined):AID2717, AID2721]; format: functional; conditions: Homo sapiens
[7] = A Cell Based Secondary Assay to Explore Cytotoxicity in THP-1 Cells of Compounds that Modulate Mycobacterium tuberculosis in Media Containing Glycerol versus Media without Glycerol (2).; format: functional
[8] = A Cell Based Secondary Assay to Explore Cytotoxicity in HepG2 Cells of Compounds that Modulate Mycobacterium tuberculosis in Media Containing Glycerol versus Media without Glycerol (2).; format: functional
[9] = target: Dual specificity tyrosine-phosphorylation-regulated kinase 1B (Homo sapiens, UniProt Q9Y463); assay: Navigating the Kinome. Panel member name: DYRK1B; format: functional
[10] = target: Tyrosine-protein kinase receptor TYRO3 (Homo sapiens, UniProt Q06418); format: functional;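 further: TYRO3 value obtained as one member of a kinome-wide profiling panel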
[11] = target: Proto-oncogene tyrosine-protein kinase receptor Ret (Homo sapiens, UniProt P07949); format: functional;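 further: measured within a kinome-wide profiling panel, RET as the panel member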
Caspase-3 = target: T1, Caspase-3 (Homo sapiens, UniProt P42574); assay: inhibition of recombinant caspase-3 activity – biochemical, luminescence, set 2, selectivity assay for SENP protease inhibitor project, SAR follow-up (AID 588599); format: functional
T1 sequence (P42574 whole entry): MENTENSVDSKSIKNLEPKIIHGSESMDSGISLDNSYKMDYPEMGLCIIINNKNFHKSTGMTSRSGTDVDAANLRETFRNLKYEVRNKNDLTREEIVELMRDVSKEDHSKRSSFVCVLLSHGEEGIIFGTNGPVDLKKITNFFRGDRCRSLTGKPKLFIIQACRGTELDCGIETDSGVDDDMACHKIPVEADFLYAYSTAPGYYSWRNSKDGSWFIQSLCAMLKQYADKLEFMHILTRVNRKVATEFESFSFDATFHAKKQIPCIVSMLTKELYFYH

[12] = target: T2, Sentrin-specific protease 7 (Homo sapiens, UniProt Q9BQF6); assay: inhibition of human SENP7 cleavage activity – biochemical, luminescence, set 2, SAR follow-up (AID 588600); format: functional
T2 sequence (Q9BQF6 whole entry): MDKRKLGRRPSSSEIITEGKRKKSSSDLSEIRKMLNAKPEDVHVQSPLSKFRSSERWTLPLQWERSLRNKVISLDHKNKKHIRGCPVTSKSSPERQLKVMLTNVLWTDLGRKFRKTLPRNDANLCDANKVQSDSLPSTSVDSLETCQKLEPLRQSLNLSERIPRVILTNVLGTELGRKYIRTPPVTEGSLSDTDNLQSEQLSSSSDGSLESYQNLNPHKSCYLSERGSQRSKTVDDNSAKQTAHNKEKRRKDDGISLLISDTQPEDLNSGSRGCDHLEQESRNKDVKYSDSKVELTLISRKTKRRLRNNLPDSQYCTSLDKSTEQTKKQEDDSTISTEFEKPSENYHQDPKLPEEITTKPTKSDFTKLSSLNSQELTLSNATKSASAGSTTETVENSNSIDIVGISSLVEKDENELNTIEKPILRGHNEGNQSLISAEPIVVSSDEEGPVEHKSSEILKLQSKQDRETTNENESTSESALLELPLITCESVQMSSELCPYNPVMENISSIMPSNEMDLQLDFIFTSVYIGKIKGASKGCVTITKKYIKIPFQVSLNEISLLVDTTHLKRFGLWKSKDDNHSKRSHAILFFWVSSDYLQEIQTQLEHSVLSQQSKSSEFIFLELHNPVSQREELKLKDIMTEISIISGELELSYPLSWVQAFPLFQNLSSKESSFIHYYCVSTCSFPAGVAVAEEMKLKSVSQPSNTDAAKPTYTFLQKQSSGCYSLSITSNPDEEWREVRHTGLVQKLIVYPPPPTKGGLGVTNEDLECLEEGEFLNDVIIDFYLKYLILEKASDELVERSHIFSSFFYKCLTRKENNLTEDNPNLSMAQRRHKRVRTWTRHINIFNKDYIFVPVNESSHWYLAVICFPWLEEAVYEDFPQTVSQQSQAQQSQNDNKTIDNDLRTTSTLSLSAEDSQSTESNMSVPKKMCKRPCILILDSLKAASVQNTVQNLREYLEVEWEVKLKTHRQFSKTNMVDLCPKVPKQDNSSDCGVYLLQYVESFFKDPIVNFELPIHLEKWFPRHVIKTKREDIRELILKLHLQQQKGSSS

[13] = target: T3, Sentrin-specific protease 8 (Homo sapiens, UniProt Q96LD8); assay: inhibition of sentrin protease 8 – biochemical, luminescence, set 2, SAR follow-up (AID 588601); format: functional
T3 sequence (Q96LD8 whole entry): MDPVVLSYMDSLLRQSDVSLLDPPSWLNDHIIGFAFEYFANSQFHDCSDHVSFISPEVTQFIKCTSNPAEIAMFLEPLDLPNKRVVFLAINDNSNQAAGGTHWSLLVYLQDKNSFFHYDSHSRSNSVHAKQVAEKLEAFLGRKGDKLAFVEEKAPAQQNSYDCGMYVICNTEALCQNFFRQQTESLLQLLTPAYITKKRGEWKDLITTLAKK

[14] = target: T4, Sentrin-specific protease 6 (Homo sapiens, UniProt Q9GZR1); assay: inhibition of human SENP6 catalytic domain – biochemical, luminescence, set 2, SAR follow-up (AID 588598); format: functional
T4 sequence (Q9GZR1 whole entry): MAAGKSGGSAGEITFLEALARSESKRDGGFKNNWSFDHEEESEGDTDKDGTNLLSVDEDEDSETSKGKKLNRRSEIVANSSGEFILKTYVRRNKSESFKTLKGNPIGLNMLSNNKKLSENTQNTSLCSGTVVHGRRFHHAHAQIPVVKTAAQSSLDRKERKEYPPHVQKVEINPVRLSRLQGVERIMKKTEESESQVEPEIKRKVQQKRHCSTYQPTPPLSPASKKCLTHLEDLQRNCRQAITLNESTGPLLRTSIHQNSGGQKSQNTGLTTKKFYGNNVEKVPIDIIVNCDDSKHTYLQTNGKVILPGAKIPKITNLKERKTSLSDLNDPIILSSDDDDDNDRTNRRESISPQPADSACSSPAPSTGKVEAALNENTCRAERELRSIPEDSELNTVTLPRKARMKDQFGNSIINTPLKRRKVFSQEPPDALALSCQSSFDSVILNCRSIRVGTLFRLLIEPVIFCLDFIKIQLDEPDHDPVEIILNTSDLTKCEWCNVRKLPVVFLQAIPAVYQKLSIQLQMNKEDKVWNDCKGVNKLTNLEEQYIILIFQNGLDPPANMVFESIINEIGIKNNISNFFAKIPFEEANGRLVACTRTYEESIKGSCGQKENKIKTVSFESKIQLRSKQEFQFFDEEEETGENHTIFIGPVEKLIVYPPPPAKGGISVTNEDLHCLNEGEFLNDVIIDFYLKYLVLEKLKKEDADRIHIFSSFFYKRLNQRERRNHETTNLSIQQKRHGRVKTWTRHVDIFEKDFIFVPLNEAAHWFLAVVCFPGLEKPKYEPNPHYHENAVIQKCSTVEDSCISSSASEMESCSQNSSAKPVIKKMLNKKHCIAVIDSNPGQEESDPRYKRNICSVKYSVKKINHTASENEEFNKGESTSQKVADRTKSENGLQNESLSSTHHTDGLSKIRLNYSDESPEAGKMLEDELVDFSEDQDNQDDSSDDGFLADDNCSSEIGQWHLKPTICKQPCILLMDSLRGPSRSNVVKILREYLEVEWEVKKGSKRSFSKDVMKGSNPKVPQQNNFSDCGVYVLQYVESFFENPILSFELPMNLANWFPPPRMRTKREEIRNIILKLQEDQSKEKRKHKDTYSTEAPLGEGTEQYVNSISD

Candida albicans [15] = assay: Candida growth inhibition combined with fluconazole – CaCi-2 strain, Alamar Blue, dry powder, set 3, dose response (AID 488907); format: functional, organism-based
Candida albicans [16] = assay: resistant Candida growth with fluconazole co-treatment – CaCi-8 strain, Alamar Blue, dry powder, set 3, dose response (AID 488905); format: functional, organism-based
HEK293 = assay: EBV LMP1 TES2 canonical NF-kB signalling blockers – cell-based, HEK293, luciferase, cherry-pick, dose response (AID 588343); format: functional; conditions: Homo sapiens
[17] = target: Latent membrane protein 1 (Human herpesvirus 4 (strain B95-8), UniProt P03230); assay: LMP1 TES1 pathway selectivity over dsRED control – imaging, HEK293T, dual-color eGFP/dsRED, cherry-picks, selectivity assay for LMP1 NF-kB inhibitor project, dose response (AID 588398); format: functional, cell-based
[18] = target: Cyclin-dependent kinase 9 (Homo sapiens, UniProt P50750); format: functional;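 further: value from the CDK9 entry of a kinome-spanning kinase panel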
[19] = target: Dual specificity mitogen-activated protein kinase kinase 1 (Homo sapiens, UniProt Q02750); assay: Navigating the Kinome. Panel member name: MAP2K1; format: functional
[20] = target: Cyclin-dependent kinase 19 (Homo sapiens, UniProt Q9BWU1); assay: Navigating the Kinome. Panel member name: CDC2L6; format: functional
[21] = target: cAMP-dependent protein kinase catalytic subunit alpha (Homo sapiens, UniProt P17612); format: functional
Aurora kinase A = Aurora kinase A (Homo sapiens, UniProt O14965); format: functional;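 further: value from the Navigating the Kinome kinase panel profiling, panel entry STK6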
[22] = target: Protein kinase C theta type (Homo sapiens, UniProt Q04759); assay: Navigating the Kinome. Panel member name: PRKCQ; format: functional
[23] = target: Macrophage colony-stimulating factor 1 receptor (Homo sapiens, UniProt P07333); format: functional;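 further: value comes from the Navigating the Kinome screening panel, CSF1R member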
[24] = target: Dual specificity tyrosine-phosphorylation-regulated kinase 1A (Homo sapiens, UniProt Q13627); format: functional;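 further: measured against DYRK1A as one member of a broad kinome profiling panel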
[25] = target: Vascular endothelial growth factor receptor 2 (Homo sapiens, UniProt P35968); format: functional
INS1 [26] = assay: beta-cell survival under cytokine stress – INS-1E, ATP luminescence, dry powder, dose response (AID 488844); format: functional, cell-based; conditions: Rattus norvegicus
INS1 [27] = assay: suppression of cytokine-induced beta-cell apoptosis – INS-1E, caspase luminescence, dry powder, beta-cell apoptosis inhibitor project, dose response (AID 488848); format: functional, cell-based; conditions: Rattus norvegicus
INS1 [28] = assay: INS-1E mitochondrial potential rescue under cytokines – cell-based, JC-1 fluorescence ratio, dry powder, dose response (AID 488931); format: functional; conditions: Rattus norvegicus
INS1 [29] = assay: suppression of NO production in INS-1E cells – cell-based, Griess absorbance, dry powder, set 2, dose response (AID 488868); format: functional; conditions: Rattus norvegicus
[30] = target: Glycogen synthase kinase-3 beta (Homo sapiens, UniProt P49841); assay: Inhibition of Human GSK-3 beta Activity Measured in Biochemical System Using Microfluidics - 2063-05_Inhibitor_Dose_DryPowder_Activity_Set2. [Related pubchem assays (depositor defined):AID2709]
[31] = target: Glycogen synthase kinase-3 alpha (Homo sapiens, UniProt P49840); assay: Inhibition of Human GSK-3 alpha Activity Measured in Biochemical System Using Microfluidics - 2063-06_Inhibitor_Dose_DryPowder_Activity_Set2. [Related pubchem assays (depositor defined):AID2709]

Sequence of Dual specificity tyrosine-phosphorylation-regulated kinase 1B (Q9Y463 whole entry): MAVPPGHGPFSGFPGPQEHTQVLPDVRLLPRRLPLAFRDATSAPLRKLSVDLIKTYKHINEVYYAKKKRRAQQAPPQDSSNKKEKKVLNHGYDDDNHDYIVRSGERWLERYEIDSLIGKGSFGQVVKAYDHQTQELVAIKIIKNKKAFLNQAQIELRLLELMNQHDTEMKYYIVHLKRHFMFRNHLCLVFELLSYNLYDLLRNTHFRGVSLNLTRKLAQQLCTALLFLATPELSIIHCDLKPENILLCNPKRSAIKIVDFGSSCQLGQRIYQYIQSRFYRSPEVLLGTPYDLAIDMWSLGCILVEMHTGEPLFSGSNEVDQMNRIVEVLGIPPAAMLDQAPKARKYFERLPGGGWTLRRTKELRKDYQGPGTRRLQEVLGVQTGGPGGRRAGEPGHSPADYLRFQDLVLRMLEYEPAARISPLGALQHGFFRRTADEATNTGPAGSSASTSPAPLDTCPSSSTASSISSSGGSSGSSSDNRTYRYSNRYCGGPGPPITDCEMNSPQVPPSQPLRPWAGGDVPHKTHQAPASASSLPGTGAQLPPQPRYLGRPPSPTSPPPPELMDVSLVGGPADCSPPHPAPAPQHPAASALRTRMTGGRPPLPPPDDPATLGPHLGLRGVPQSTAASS
Sequence of Dual specificity protein kinase CLK4 (Q9HAZ1 whole entry): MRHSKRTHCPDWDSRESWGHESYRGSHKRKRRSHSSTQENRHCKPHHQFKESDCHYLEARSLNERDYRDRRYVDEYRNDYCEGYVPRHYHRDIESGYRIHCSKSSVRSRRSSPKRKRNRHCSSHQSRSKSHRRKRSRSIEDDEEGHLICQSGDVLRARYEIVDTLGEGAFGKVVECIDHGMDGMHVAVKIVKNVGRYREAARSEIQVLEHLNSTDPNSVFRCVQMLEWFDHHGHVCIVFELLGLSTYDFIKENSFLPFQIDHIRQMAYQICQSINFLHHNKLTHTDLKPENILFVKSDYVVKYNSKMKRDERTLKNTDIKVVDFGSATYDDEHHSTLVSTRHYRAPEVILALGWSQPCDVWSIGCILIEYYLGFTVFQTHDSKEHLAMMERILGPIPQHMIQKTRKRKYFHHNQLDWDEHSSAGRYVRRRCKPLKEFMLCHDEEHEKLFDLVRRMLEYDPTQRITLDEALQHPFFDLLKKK
Sequence of Macrophage colony-stimulating factor 1 receptor (P07333 whole entry): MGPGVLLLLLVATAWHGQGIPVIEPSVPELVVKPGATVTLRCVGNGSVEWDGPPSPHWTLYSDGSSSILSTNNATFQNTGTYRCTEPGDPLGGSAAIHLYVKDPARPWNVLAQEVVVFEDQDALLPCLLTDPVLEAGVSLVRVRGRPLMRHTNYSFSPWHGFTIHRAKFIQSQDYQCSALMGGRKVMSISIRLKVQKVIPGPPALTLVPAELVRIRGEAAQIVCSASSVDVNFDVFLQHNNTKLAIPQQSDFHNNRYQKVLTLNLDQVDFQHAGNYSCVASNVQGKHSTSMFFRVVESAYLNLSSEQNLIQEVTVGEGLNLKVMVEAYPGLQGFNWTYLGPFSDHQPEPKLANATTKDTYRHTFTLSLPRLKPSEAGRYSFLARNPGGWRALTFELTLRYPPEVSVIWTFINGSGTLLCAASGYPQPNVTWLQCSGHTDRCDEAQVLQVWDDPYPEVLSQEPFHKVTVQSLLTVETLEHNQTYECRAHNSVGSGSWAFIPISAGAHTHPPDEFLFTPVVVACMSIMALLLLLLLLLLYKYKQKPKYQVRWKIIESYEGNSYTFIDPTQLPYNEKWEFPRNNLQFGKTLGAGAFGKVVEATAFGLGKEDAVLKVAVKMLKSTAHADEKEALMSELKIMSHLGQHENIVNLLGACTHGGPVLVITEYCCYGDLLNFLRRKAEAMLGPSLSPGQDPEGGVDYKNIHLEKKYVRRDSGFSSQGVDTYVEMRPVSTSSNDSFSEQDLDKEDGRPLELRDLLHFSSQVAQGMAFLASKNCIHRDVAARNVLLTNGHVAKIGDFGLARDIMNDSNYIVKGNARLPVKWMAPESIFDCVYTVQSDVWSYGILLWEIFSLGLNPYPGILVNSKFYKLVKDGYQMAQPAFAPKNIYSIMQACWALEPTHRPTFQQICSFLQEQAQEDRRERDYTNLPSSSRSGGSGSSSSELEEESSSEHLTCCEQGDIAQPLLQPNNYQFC
Sequence of Mitogen-activated protein kinase 8 (P45983 whole entry): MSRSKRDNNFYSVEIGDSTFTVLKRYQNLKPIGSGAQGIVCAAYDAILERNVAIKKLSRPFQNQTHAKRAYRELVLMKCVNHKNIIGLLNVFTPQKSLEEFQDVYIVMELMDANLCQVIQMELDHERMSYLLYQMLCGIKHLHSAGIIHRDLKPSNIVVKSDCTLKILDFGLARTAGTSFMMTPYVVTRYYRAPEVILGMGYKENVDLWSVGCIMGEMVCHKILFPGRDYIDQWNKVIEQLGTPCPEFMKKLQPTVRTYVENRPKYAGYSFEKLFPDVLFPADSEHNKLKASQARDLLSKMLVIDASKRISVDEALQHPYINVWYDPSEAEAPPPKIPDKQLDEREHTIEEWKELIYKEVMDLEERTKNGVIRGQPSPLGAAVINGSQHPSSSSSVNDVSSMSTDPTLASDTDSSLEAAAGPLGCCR
Sequence of Aurora kinase A (O14965 whole entry): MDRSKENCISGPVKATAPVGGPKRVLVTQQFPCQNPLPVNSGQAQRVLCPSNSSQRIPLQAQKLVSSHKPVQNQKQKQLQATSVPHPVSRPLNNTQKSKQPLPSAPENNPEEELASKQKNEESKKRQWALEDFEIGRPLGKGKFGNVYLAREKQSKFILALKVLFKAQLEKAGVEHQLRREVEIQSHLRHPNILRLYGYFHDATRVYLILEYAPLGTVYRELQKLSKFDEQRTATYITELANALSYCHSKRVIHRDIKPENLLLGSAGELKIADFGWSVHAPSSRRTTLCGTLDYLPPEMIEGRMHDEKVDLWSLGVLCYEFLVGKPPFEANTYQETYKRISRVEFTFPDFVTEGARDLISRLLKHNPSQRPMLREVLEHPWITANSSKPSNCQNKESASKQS
Sequence of Platelet-derived growth factor receptor alpha (P16234 whole entry): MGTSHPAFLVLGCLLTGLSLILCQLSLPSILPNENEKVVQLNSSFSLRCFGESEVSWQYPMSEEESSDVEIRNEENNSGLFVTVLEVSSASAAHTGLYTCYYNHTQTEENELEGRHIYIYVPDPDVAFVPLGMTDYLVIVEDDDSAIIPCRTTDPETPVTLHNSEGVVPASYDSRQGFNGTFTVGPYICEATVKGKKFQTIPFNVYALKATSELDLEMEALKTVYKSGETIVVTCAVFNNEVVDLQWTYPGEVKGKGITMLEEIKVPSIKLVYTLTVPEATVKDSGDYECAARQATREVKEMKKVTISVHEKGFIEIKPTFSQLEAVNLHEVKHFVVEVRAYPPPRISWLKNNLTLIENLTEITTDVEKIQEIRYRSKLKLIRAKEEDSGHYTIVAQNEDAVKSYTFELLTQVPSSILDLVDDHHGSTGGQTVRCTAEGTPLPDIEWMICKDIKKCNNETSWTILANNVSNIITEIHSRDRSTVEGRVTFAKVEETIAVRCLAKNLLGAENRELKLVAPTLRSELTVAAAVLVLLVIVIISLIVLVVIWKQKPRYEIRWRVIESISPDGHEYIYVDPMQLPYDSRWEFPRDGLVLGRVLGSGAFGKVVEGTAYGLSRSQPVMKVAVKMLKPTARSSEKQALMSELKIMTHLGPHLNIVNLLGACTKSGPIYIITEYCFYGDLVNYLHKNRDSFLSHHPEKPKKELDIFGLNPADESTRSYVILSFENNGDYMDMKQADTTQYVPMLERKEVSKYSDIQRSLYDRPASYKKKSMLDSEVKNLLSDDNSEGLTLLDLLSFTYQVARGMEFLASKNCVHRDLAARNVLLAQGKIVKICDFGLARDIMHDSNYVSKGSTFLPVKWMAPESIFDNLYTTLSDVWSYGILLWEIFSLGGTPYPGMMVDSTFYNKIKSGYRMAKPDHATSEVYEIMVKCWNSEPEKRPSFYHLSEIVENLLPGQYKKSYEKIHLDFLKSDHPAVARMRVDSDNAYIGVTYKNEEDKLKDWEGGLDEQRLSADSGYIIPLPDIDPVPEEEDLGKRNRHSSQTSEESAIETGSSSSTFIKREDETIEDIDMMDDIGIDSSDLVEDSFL
Sequence of Tyrosine-protein kinase receptor TYRO3 (Q06418 whole entry): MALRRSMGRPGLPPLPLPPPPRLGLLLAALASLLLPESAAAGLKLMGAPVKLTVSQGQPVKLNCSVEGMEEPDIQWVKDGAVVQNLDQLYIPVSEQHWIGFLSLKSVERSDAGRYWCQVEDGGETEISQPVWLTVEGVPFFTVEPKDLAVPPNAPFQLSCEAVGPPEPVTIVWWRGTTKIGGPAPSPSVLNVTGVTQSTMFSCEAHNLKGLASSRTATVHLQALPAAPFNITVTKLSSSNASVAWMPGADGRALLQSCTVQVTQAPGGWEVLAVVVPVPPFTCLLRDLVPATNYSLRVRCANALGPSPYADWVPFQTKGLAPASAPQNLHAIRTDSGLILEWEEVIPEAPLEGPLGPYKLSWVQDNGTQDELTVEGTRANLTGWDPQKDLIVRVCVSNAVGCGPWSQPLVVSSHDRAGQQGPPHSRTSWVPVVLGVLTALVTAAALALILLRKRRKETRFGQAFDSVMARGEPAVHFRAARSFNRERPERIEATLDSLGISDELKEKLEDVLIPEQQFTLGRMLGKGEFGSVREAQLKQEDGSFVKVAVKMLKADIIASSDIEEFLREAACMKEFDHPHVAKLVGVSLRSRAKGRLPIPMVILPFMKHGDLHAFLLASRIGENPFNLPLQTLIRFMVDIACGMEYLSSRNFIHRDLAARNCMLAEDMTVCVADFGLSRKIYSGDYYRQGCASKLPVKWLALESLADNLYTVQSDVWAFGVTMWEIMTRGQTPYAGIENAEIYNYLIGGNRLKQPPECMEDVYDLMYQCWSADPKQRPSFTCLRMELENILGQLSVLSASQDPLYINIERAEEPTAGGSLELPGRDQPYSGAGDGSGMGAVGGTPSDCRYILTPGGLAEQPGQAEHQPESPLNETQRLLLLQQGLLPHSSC

## Cc1[nH]c(=O)oc(=O)c1-c1ccccc1
[1]
  Ki: 63.1 µM (active)
[2]
  Ki: 20 µM (active)
[3]
  Ki: 63.1 µM (active)
[4]
  Ki: 79.4 µM (active)

## S=c1[nH]cnc2nc[nH]c12 [MERCAPTOPURINE]
[5]
  CC50: 76.5 µM (active)
[6]
  AC50: 0.561 µM (active)
[7]
  CC50: 30.4 µM (active)
[8]
  CC50: 5.55 µM (active)

## O=C1NS(=O)(=O)c2cccc(Cl)c21
[9]
  Ki: 50.1 µM (active)
[10]
  Ki: 31.6 µM (active)
[11]
  Ki: 100 µM (active)

## COc1ccc(Br)c(C(=O)Nc2nc3ccc(C)cc3s2)c1
Caspase-3
  IC50: 3.57 µM (active)
[12]
  IC50: 2.13 µM (active)
[13]
  IC50: 1.78 µM (active)
[14]
  IC50: 2.02 µM (active)

## O=C(c1cccc(Cl)c1)N1CCN(c2ccccn2)CC1
Candida albicans [15]
  AC50: 0.073 µM (active)
Candida albicans [16]
  AC50: < 0.195 µM (active)

## c1ccc(C2c3[nH]c4ccccc4c3CCN2Cc2cccn2-c2ccccn2)nc1 (stereo unspecified)
HEK293
  AC50: 110 µM (active)
[17]
  AC50: 29.8 µM (active)

## NC(=O)c1cnn2c(-c3ccccc3)ccnc12
[18]
  Ki: > 63.1 µM (inactive)
[19]
  Ki: 50.1 µM (active)
[20]
  Ki: > 100 µM (inactive)
[21]
  Ki: > 50.1 µM (inactive)
Aurora kinase A
  Ki: > 63.1 µM (inactive)
[22]
  Ki: > 100 µM (inactive)
[23]
  Ki: > 100 µM (inactive)
[9]
  Ki: 15.8 µM (active)
[2]
  Ki: 3.98 µM (active)
[24]
  Ki: > 79.4 µM (inactive)
[25]
  Ki: > 100 µM (inactive)

## Cc1ccc(S(=O)(=O)N(C)C[C@@H]2Oc3c(NC(=O)Nc4ccc(F)cc4)cccc3C(=O)N([C@@H](C)CO)C[C@H]2C)cc1
INS1 [26]
  AC50: 28.7 µM (active)
INS1 [27]
  AC50: 27.4 µM (active)
INS1 [28]
  AC50: 83.3 µM (active)
INS1 [29]
  AC50: 41 µM (active)

## CN(C)Cc1c(C(=O)N/N=C/c2ccncc2)nnn1-c1nonc1N
[30]
  AC50: 0.255 µM (active)
[31]
  AC50: 0.597 µM (active)
